Assay results published in ChEMBL document CHEMBL1201862, “PubChem BioAssay data set” (2004).
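Where inhibition never reached the appropriate level, the endpoint shown equals the highest concentration tested. Otherwise, values were interpolated linearly from a five-concentration, 48-hour dose response in 96-well plates. Abbreviation: GI50, concentration required for 50% inhibition of growth.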 Active and inactive are the calls of the source. Rule as the data show it: active = GI50 up to about 1.1 µM and inactive = higher.

Key:
Assay in all cases: DTP human tumour cell line panel, 48 h
HL-60 = test system: HL-60
SNB-19 = test system: SNB-19
SF-268 = test system: SF-268
OVCAR-4 = test system: OVCAR-4
IGROV-1 = test system: IGROV-1
OVCAR-3 = test system: OVCAR-3
U-251 = test system: U-251
Hs-578T = test system: Hs-578T
PC-3 = test system: PC-3
DU-145 = test system: DU-145
MDA-N = test system: MDA-N
UACC-257 = test system: UACC-257
KM12 = test system: KM12
MOLT-4 = test system: MOLT-4
HT-29 = test system: HT-29
SR = test system: SR
HOP-62 = test system: HOP-62
SK-MEL-5 = test system: SK-MEL-5
OVCAR-5 = test system: OVCAR-5
CAKI-1 = test system: CAKI-1
K562 = test system: K562
HCT-116 = test system: HCT-116
HCT-15 = test system: HCT-15
EKVX = test system: EKVX
RPMI-8226 = test system: RPMI-8226
CCRF-CEM = test system: CCRF-CEM
SF-295 = test system: SF-295
Malme-3M = test system: Malme-3M
A549 = test system: A549
COLO 205 = test system: COLO 205
ACHN = test system: ACHN
786-0 = test system: 786-0
SK-MEL-28 = test system: SK-MEL-28
RXF 393 = test system: RXF 393
MDA-MB-435 = test system: MDA-MB-435
SN12C = test system: SN12C
NCI-H460 = test system: NCI-H460
T47D = test system: T47D
M14 = test system: M14
NCI-H23 = test system: NCI-H23
UACC-62 = test system: UACC-62
NCI/ADR-RES = test system: NCI/ADR-RES
SK-MEL-2 = test system: SK-MEL-2
NCI-H226 = test system: NCI-H226
OVCAR-8 = test system: OVCAR-8
BT-549 = test system: BT-549
A498 = test system: A498
SW-620 = test system: SW-620
UO-31 = test system: UO-31
SF-539 = test system: SF-539
SNB-75 = test system: SNB-75
SK-OV-3 = test system: SK-OV-3
HOP-92 = test system: HOP-92
MCF7 = test system: MCF7
MDA-MB-231 = test system: MDA-MB-231
LOX IMVI = test system: LOX IMVI
TK-10 = test system: TK-10
HCC 2998 = test system: HCC 2998
NCI-H522 = test system: NCI-H522

Measured: GI50

CCCC1C(=O)Nc2cccc3ncn(c23)C1=O (configuration not stated)
> 100 µM: HCT-15
inactive: HL-60 > 100 µM | SNB-19 > 100 µM | SF-268 > 100 µM | OVCAR-4 > 100 µM | IGROV-1 > 100 µM | OVCAR-3 > 100 µM | U-251 > 100 µM | Hs-578T > 100 µM | PC-3 > 100 µM | DU-145 > 100 µM | MDA-N > 100 µM | UACC-257 > 100 µM | KM12 > 100 µM | MOLT-4 > 100 µM | HT-29 > 100 µM | SR > 100 µM | HOP-62 > 100 µM | SK-MEL-5 > 100 µM | OVCAR-5 > 100 µM | CAKI-1 > 100 µM | K562 > 100 µM | HCT-116 > 100 µM | EKVX > 100 µM | RPMI-8226 > 100 µM | CCRF-CEM > 100 µM | SF-295 > 100 µM | Malme-3M > 100 µM | A549 > 100 µM | COLO 205 > 100 µM | ACHN > 100 µM | 786-0 > 100 µM | SK-MEL-28 > 100 µM | RXF 393 > 100 µM | MDA-MB-435 > 100 µM | SN12C > 100 µM | NCI-H460 > 100 µM | T47D > 100 µM | M14 > 100 µM | NCI-H23 > 100 µM | UACC-62 > 100 µM | NCI/ADR-RES > 100 µM | SK-MEL-2 > 100 µM | NCI-H226 > 100 µM | OVCAR-8 > 100 µM | BT-549 > 100 µM | A498 > 100 µM | SW-620 > 100 µM | UO-31 > 100 µM | SF-539 > 100 µM | SNB-75 28.8 µM | SK-OV-3 > 100 µM | HOP-92 > 100 µM | MCF7 > 100 µM | MDA-MB-231 > 100 µM

COc1ccc(CC/N=C2\OCc3ccccc32)cc1OC
inactive: HL-60 5.42 µM | SNB-19 > 100 µM | OVCAR-4 59 µM | IGROV-1 67 µM | LOX IMVI 41.2 µM | U-251 > 100 µM | Hs-578T 67 µM | PC-3 46.9 µM | DU-145 32.4 µM | MDA-N 38.8 µM | UACC-257 > 100 µM | KM12 31.5 µM | MOLT-4 50.4 µM | HT-29 32.1 µM | SR 11.5 µM | SK-MEL-5 43.3 µM | CAKI-1 62.4 µM | K562 23.4 µM | HCT-116 24 µM | EKVX 76.2 µM | CCRF-CEM 29.1 µM | SF-295 33.3 µM | Malme-3M 56.8 µM | A549 46.3 µM | COLO 205 49.3 µM | TK-10 > 100 µM | ACHN 52.5 µM | 786-0 45.3 µM | SK-MEL-28 > 100 µM | MDA-MB-435 43.2 µM | SN12C 69.3 µM | NCI-H460 45.5 µM | T47D 27.5 µM | NCI-H23 32.7 µM | UACC-62 29.2 µM | NCI/ADR-RES 67 µM | SK-MEL-2 51.2 µM | NCI-H226 51.3 µM | OVCAR-8 91.8 µM | BT-549 > 100 µM | A498 > 100 µM | SW-620 54.5 µM | UO-31 69 µM | SF-539 20.7 µM | SNB-75 68.2 µM | SK-OV-3 30.5 µM | HCC 2998 > 100 µM | HOP-92 31.2 µM | MCF7 27.7 µM | MDA-MB-231 61.8 µM
38.8 µM: HCT-15

CCOC(=O)Oc1cc2c(ccn2C)c2c1c1ccccc1n2C(=O)OCC
inactive: SF-268 > 100 µM | OVCAR-4 > 100 µM | IGROV-1 > 100 µM | OVCAR-3 > 100 µM | LOX IMVI > 100 µM | U-251 > 100 µM | Hs-578T > 100 µM | PC-3 > 100 µM | DU-145 > 100 µM | MDA-N > 100 µM | UACC-257 > 100 µM | KM12 > 100 µM | MOLT-4 > 100 µM | HT-29 > 100 µM | SR > 100 µM | HOP-62 > 100 µM | SK-MEL-5 > 100 µM | OVCAR-5 > 100 µM | CAKI-1 > 100 µM | K562 > 100 µM | HCT-116 > 100 µM | EKVX > 100 µM | RPMI-8226 > 100 µM | CCRF-CEM > 100 µM | SF-295 > 100 µM | Malme-3M 76.7 µM | A549 > 100 µM | COLO 205 > 100 µM | TK-10 > 100 µM | ACHN > 100 µM | 786-0 > 100 µM | SK-MEL-28 > 100 µM | RXF 393 > 100 µM | MDA-MB-435 > 100 µM | SN12C > 100 µM | NCI-H460 > 100 µM | T47D > 100 µM | M14 > 100 µM | NCI-H23 > 100 µM | UACC-62 > 100 µM | NCI/ADR-RES > 100 µM | SK-MEL-2 > 100 µM | NCI-H226 > 100 µM | NCI-H522 > 100 µM | OVCAR-8 > 100 µM | BT-549 > 100 µM | A498 > 100 µM | SW-620 > 100 µM | UO-31 > 100 µM | SF-539 > 100 µM | SNB-75 > 100 µM | SK-OV-3 > 100 µM | HOP-92 > 100 µM | MCF7 > 100 µM | MDA-MB-231 > 100 µM
> 100 µM: HCT-15
